In assay [1] the target is T1, MAP3K6 (Homo sapiens, UniProt O95382).
T1 construct: endogenous in cells
T1 sequence (O95382 1-1288): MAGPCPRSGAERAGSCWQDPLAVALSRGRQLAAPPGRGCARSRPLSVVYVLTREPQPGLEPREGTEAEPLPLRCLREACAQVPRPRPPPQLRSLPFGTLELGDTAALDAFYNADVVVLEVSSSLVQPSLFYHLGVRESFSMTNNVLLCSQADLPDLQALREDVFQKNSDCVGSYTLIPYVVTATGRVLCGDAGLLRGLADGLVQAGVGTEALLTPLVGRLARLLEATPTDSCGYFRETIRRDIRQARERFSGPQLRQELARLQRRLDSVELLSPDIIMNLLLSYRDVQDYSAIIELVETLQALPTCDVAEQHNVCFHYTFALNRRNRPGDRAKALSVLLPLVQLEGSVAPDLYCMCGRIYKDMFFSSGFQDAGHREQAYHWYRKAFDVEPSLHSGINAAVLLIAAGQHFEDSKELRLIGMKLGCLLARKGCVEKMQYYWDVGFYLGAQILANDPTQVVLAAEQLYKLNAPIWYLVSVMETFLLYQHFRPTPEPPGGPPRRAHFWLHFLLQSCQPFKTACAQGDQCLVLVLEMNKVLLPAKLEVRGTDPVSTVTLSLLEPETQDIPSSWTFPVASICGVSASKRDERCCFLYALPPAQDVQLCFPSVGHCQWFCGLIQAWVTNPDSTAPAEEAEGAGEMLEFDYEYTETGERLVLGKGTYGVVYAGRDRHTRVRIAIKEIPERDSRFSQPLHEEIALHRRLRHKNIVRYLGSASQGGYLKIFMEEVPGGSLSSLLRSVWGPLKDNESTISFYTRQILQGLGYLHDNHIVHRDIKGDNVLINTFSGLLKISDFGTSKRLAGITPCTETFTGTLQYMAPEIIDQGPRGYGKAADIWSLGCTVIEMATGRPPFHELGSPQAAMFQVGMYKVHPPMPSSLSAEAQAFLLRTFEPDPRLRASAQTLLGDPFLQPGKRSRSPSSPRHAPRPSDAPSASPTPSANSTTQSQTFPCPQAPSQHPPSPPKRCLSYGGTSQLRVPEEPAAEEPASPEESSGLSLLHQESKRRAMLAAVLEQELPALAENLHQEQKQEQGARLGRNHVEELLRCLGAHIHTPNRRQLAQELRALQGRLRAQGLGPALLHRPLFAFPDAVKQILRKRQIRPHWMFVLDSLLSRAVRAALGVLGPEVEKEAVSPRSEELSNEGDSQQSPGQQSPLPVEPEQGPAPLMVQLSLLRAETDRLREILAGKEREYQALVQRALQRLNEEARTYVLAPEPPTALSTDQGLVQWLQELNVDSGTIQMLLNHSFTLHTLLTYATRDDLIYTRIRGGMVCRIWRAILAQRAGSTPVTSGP
Nature of the assay: Kinobeads two-dose competition binding: MAP3K6. To be noted: for CATDS: target MAP3K6.

Assay [2] has as its target ABL1 (Homo sapiens, UniProt P00519). As to the kind of experiment: Kinobeads two-dose competition binding: ABL1. Conditions: sheet CATDS matrix 2; Gene Name ABL1.
The target in assay [3] is T2, BMP2K (Homo sapiens, UniProt Q9NSY1).
T2 construct: endogenous in cells
T2 sequence (Q9NSY1 whole entry): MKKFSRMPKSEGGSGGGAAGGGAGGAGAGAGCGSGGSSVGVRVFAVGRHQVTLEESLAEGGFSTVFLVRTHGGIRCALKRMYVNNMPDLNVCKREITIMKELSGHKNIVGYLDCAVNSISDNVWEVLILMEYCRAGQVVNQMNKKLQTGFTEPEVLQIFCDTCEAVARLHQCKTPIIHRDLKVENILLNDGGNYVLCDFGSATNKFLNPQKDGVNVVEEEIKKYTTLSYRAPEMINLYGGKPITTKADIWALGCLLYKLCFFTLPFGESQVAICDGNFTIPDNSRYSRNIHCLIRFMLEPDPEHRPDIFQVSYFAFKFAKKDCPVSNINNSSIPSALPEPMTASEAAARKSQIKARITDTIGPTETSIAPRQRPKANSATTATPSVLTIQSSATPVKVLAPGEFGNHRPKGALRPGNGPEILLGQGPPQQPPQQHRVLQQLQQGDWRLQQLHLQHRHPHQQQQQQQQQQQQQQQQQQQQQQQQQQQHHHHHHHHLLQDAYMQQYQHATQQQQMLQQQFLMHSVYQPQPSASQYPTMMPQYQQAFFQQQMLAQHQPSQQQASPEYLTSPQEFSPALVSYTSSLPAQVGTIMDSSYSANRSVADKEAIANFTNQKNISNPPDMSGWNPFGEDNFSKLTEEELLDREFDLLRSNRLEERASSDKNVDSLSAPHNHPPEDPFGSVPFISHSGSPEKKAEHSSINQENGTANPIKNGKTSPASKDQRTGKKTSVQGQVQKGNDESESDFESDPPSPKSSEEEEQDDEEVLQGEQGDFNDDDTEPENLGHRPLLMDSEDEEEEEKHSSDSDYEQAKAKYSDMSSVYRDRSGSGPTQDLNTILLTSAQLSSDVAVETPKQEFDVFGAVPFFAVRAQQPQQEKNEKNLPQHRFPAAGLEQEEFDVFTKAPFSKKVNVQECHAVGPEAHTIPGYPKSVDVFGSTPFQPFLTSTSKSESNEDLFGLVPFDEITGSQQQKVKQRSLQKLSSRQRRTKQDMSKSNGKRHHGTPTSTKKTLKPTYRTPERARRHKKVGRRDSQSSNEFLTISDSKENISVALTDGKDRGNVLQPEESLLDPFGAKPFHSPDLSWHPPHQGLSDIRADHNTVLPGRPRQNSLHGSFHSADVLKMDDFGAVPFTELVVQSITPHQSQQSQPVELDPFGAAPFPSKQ
Nature of the assay: Kinobeads two-dose competition binding: BMP2K. To be noted: for CATDS: target BMP2K. The text has this: (§1) Briefly, Kinobeads comprise seven broad-spectrum small molecule kinase inhibitors immobilized on Sepharose beads. […]. Compounds of interest are set to compete for target protein binding with Kinobeads in the lysate and the amount of a given protein bound to Kinobeads in the presence of a compound can be quantified relative to a dimethylsulfoxide (DMSO) vehicle control by label-free mass spectrometry. This assay measures the physical interaction of a compound with thousands of endogenous proteins in parallel and, when systematically increasing the concentration of competitor, enables the calculation of an apparent interaction constant ( Kdapp ) for each compound and protein.
(§2) Kinobeads pulldown experiments were performed as described previously[13],[14],[17] with minor modification. […] The protein concentration was adjusted to 5 mg ml^−1. Kinase inhibitors were spiked into 0.5 ml of cell lysate at final concentrations of 100 and 1,000 nM (or DMSO, 0.3, 1, 3, 10, 30, 100, 300 and 1,000 nM for full dose experiments). […] Lysates were incubated for 45 min at 4 °C. Subsequently, lysates were incubated with Kinobeads ε (17.5 µl of settled beads) for 30 min at 4 °C. To assess the degree of protein depletion from the lysates by Kinobeads, the flow through of the DMSO control was recovered for a pulldown of pulldown experiment where the lysate was incubated a second time with fresh Kinobeads. Beads were washed in three steps with buffer containing 0.4%, 0.2% and no IGEPAL. Bound proteins were reduced with 50 mM DTT in 8 M Urea, 40 mM Tris-HCl pH 7.4 for 30 min at room temperature. After alkylation with 55 mM chloroacetamide, the urea concentration was reduced to 1–2 M and proteins were digested with trypsin. Acidified peptides were desalted and concentrated using SepPak tC18 µEluation plates (Waters). Samples were frozen, dried by vacuum centrifugation and stored at −20 °C.
(§3) Each kinase inhibitor was processed together with all DMSO controls of the same plate. Additionally, each search was supplemented with five high quality DMSO controls for consistent peptide identification and protein grouping. The resultant file (proteinGroups.txt) was used for subsequent filtering, normalization, data visualization and target annotation that was automatically performed by a data processing pipeline built in house that used R (including the ‘drc’ and ‘heatmap’ packages). First, reverse hits, potential contaminants and not quantified proteins in the DMSO control samples were discarded. Protein raw and label-free quantification intensities were normalized to the median DMSO control intensity to obtain relative residual binding intensities for each protein group at every inhibitor concentration and standard deviations of the DMSO control intensity were calculated. IC50 values were estimated based on the following equation IC50=I×100−inhibition/inhibition where [I] is the inhibitor concentration that was used for IC50 calculation and ‘inhibition’ the relative residual binding intensity. […]. Estimated Kdapp values were then calculated by multiplying the estimated IC50 values with a protein-dependent correction factor that was limited to a maximum value of one. The correction factor accounts for the depletion of a target protein from the lysate by Kinobeads. The depletion can be measured by the ratio of the amount of protein captured in two consecutive pulldowns of the same DMSO control lysate. In this study, correction factors were determined in separate experiments using the same lysate mixture and the same bead batch. Correction factors were set to the median of all correction factors. Targets of kinase inhibitors were annotated using the previously published random forest classifier. A training data set was annotated manually. […]

Assay [4] concerns the target T3, ATM (Homo sapiens, UniProt Q13315).
T3 construct: endogenous in cells
As to the kind of experiment: Kinobeads two-dose competition binding: ATM. To be noted: for CATDS: target ATM.
From the text: as §1, §2, §3

This passage reports CATDS and potency estimated from few doses results from article PMC11062922 (Nature Chemical Biology, 2023).

ABL1, sequence (P00519 28-1130 limits assumed): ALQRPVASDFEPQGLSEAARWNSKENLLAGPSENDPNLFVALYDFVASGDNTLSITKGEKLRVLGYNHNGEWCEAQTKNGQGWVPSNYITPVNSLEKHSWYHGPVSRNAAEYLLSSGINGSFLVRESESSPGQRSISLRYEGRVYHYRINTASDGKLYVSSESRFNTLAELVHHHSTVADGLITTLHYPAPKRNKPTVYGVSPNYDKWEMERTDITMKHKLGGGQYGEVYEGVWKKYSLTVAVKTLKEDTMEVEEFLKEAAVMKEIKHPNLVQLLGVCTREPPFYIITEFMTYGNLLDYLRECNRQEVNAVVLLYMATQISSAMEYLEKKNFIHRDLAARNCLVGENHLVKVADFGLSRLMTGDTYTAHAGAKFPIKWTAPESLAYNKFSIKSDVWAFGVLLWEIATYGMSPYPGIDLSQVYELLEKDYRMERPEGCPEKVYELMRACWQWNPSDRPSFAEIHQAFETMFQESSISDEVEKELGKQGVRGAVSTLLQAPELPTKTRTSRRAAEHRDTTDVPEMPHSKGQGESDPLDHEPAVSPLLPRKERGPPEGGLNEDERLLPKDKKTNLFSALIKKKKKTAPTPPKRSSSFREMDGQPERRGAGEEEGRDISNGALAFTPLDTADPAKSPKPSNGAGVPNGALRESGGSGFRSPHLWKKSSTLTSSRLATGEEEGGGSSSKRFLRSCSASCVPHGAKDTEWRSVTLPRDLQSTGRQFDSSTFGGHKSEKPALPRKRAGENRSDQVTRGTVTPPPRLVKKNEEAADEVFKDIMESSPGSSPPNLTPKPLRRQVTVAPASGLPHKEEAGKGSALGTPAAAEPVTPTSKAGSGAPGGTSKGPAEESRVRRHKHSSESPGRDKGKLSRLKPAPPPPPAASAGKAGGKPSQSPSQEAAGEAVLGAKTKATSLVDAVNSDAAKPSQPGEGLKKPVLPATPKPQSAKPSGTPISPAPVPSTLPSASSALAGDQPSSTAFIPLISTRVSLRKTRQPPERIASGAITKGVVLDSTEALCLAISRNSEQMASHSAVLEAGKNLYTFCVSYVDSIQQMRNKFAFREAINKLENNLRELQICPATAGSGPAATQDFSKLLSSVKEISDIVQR

As for `CCN1CCN(Cc2ccc(Nc3ncc(F)c(-c4cc(F)c5nc(C)n(C(C)C)c5c4)n3)nc2)CC1` [Abemaciclib], the CATDS in assay [1], in assay [2], in assay [3] and in assay [4] was 0 in each case.
With `CC(C)N1CC(=O)N(C)c2cnc(Nc3cccc(S(=O)(=O)CCN4CCOCC4)c3)nc21` [BI00009348], the potency estimated from few doses in assay [1] (Kinobeads two-dose, Drugmatrix - all 2, read-out: apparent Kd MAP3K6) was 698 nM; in assay [3] (Kinobeads two-dose, Drugmatrix - all 2, read-out: apparent Kd BMP2K) it was 736 nM; in assay [4] (Kinobeads two-dose, Drugmatrix - all 2, read-out: apparent Kd ATM), 112 nM. In addition, in assay [2], the CATDS stood at 0.
On to `N#CC1(c2ccc(NC(=O)c3cccnc3NCc3ccncc3)cc2)CCCC1` [Apatinib], for which the CATDS in assay [1], in assay [2], in assay [3] and in assay [4] was 0 throughout.
In assay [2], `C#Cc1cccc(Nc2ncnc3cc(OC)c(OC4CCN(C)CC4)cc23)c1` [BI00007366] showed a CATDS of 0.
As to `CN(C)C/C=C/C(=O)Nc1cc2c(Nc3ccc(F)c(Cl)c3)ncnc2cc1O[C@H]1CCOC1` [Afatinib], the CATDS in assay [1], in assay [2], in assay [3] and in assay [4] was 0 each time.
As to `Nc1ncnc2[nH]c(-c3ccccc3)nc12` [AH5015_KCGS], the CATDS in assay [1], in assay [2], in assay [3] and in assay [4] was 0 throughout.
For `CCc1cc2c(cc1N1CCC(N3CCOCC3)CC1)C(C)(C)c1[nH]c3cc(C#N)ccc3c1C2=O` [Alectinib], the CATDS in assay [1], in assay [2], in assay [3] and in assay [4] was 0 in each case.
